Assays:
[1] = test system: modified 16S RNA (5′-PS-G1491; 3′-phosphorothioate at G1491, C12O6 PEG mass tag); experiment: ESI-FT-ICR MS ligand binding to 27-mer 16S RNA modified at G1491; parameters: species or system E. coli
Description: (§1) The following examples illustrate preferred embodiments of the present invention using mass spectrometry. Experiments were performed using a 7.0 Tesla Fourier transform ion cyclotron resonance (FT-ICR) mass spectrometer with an electrospray ionization source operating in the negative mode. A −3000 V difference was employed between the spray tip and the inlet capillary to generate the electrospray. Samples were introduced at a flow rate of 1.5 uL/min using a Harvard syringe pump and a 50 uL glass syringe. The desolvation of the electrospray droplets was aided by a flow of countercurrent gas at 1 L/min. Ions were accumulated for 1.0 sec in an intermediate hexapole ion storage region at 1.0×10^−5 mbar. Following transfer to the FT-ICR analysis cell, the image current was measured over a mass range of 500-4000 m/z. Typically, a total of 32 transients containing 512 kbytes were summed prior to Fourier transformation. The m/z values were calibrated on the signal from the [M-5H^+]^5− charge state of the free RNA at 1726.509.
An aqueous solution containing 100 mM ammonium acetate buffer (pH 7.0), 33% isopropyl alcohol, gentamicin (1 μM), 16S RNA (5 μM) and a modified 16S RNA (5.5 μM) was prepared. Modified 27-mer 16S RNA contained a 3′-phosphorothioate residue at position G1491 at the position of a G-C base pair (E. coli numbering system) and a C12O6 PEG mass tag off the 5′-hydroxyl group. Mass spectra were obtained using the standard protocol described above. The resulting mass spectra contained identifiable peaks corresponding to free 16S RNA (m/z 1726.5), free modified 16S RNA(5′-PS-G1491; m/z 1779.3), 16S complexed with the three forms of gentamicin present in the sample (16S+genta; m/z 1816-1825), and 16S(5′-PS-G1491) complexed with the three forms of gentamicin (5′-PS-G1491+genta; m/z 1869-1875). The peaks from the complexes formed from the lowest mass form of gentamicin were integrated and ion abundances determined. Fractions of 16S+genta and 5′-PS-G1491+genta complexes were determined to be 0.127 and 0.140±0.01% for the free 16S RNA and 5′-PS-G1491 RNA, respectively.
An aqueous solution containing 100 mM ammonium acetate buffer (pH 7.0), 33% isopropyl alcohol, ribostamycin (1 μM), 16S RNA (5 μM) and a modified 16S RNA (5.5 uM) was prepared. Modified 27 mer 16S RNA contained a 3′-phosphorothioate residue at position G1491 at the position of a G-C base pair (E. coli numbering system) and a C12O6 PEG mass tag off the 5′-hydroxyl group. […] The peaks from the complexes formed between ribostamycin and the RNA were integrated and ion abundances determined. Fractions of 16S+ribost and 5′-PS-G1491+ribost complexes were determined to be 0.105 and 0.100±0.005% for the free 16S RNA and 5′-PS-G1491 RNA, respectively.

[2] = test system: 16S RNA (27-mer RNA model of the prokaryotic A-site 16S RNA); experiment: ESI-FT-ICR MS ligand binding to unmodified 27-mer 16S RNA; parameters: species or system E. coli
Description: as §1
An aqueous solution containing 100 mM ammonium acetate buffer (pH 7.0), 33% isopropyl alcohol, gentamicin (2 μM, present in three forms), 16S RNA (2.5 μM) and a modified 16S RNA (2.5 μM) was prepared. Modified 27-mer 16S RNA contained a 5-iodouridine residue at position 13 in the UUCG tetraloop (See FIG. 1). The resulting mass spectra (see FIG. 3, upper spectrum) contained identifiable peaks corresponding to free 16S RNA (m/z 1726.5), free modified 16S RNA(5IUtetra; m/z 1750.7), 16S complexed with the three forms of gentamicin present in the sample (16S+genta; m/z 1816-1825), and 16S(5IUtetra) complexed with the three forms of gentamicin (5IUtetra+genta; m/z 1841-1849). The peaks were integrated and ion abundances determined. Fractions of 16S+genta and 5IUtetra+genta complexes were determined to be 70.4% and 68.2±1% for the free 16S RNA and 5IUtetraRNA, respectively.
An aqueous solution containing 100 mM ammonium acetate buffer (pH 7.0), 33% isopropyl alcohol, gentamicin (2 μM), 16S RNA (2.5 μM) and a modified 16S RNA (2.5 μM) was prepared. Modified 27-mer 16S RNA contained a 5-iodouridine residue at position U1406 at the position of a U-U mismatch base pair (E. coli numbering system). The resulting mass spectra (see FIG. 3, lower spectrum) contained identifiable peaks corresponding to free 16S RNA (m/z 1726.5), free modified 16S RNA(5IU1406; m/z 1750.7), 16S complexed with the three forms of gentamicin present in the sample (16S+genta; m/z 1816-1825), and 16S(5IU1406) complexed with the three forms of gentamicin (5IU1406+genta; m/z 1841-1849). The peaks were integrated and ion abundances determined. Fractions of 16S+genta and 5IU1406+genta complexes were determined to be 66.8% and 28.1±1% for the free 16S RNA and 5IU1406 RNA, respectively.
An aqueous solution containing 50 mM ammonium acetate buffer (pH 7.0), 33% isopropyl alcohol, ribostamycin (2.5 μM), 16S RNA (2.5 μM) and a modified 16S RNA (2.5 μM) was prepared. […] The resulting mass spectra (see FIG. 4) contained identifiable peaks corresponding to free 16S RNA (m/z 1726.5), free modified 16S RNA(5IU 1495; m/z 1821.4), 16S complexed with ribostamycin present in the sample (16S+ribost; m/z 1818.6), and 16S(5IU1495) complexed with ribostamycin (5IU1495+ribost; m/z 1912.3). The peaks were integrated and ion abundances determined. Fractions of 16S+ribost and 5IU1495+ribost complexes were determined to be 67.6% and 29.9±1% for the free 16S RNA and 5IU1495 RNA, respectively.
An aqueous solution containing 100 mM ammonium acetate buffer (pH 7.0), 33% isopropyl alcohol, gentamicin (1 μM), 16S RNA (5 μM) and a modified 16S RNA (5.5 μM) was prepared. Modified 27-mer 16S RNA contained a 3′-phosphorothioate residue at position G1491 at the position of a G-C base pair (E. coli numbering system) and a C12O6 PEG mass tag off the 5′-hydroxyl group. Mass spectra were obtained using the standard protocol described above. […]

[3] = Example 5: ribostamycin 1 μM, 16S RNA 5 μM with 5′-PS-G1491 RNA 5.5 uM, 100 mM ammonium acetate pH 7.0, 33% isopropyl alcohol
[4] = Example 4: gentamicin 1 μM (lowest mass form integrated), 16S RNA 5 μM with 5′-PS-G1491 RNA 5.5 μM, 100 mM ammonium acetate pH 7.0, 33% isopropyl alcohol

Molecule	Amount of 5′-PS-G1491+ribost as % of the amount of 16S+ribost ([1]; Example 5: ribostamycin 1 μM) [%]	Fraction of 5′-PS-G1491+ribost complex [1, 3] [%]	Fraction of 16S+ribost complex ([2]; Example 3: ribostamycin 2.5 μM, 16S RNA 2.5 μM with 5IU1495 RNA 2.5 μM, 50 mM ammonium acetate pH 7.0, 33% isopropyl alcohol) [%]	Fraction of 16S+ribost complex [2, 3] [%]	Fraction of 16S+ribost complex ([2]; Example 7: ribostamycin 1 μM, 16S RNA 5 μM with 5′-PS-A1492 RNA 5.5 μM, 100 mM ammonium acetate pH 7.0, 33% isopropyl alcohol) [%]	Amount of 5′-PS-G1491+genta as % of the amount of 16S+genta ([1]; Example 4: gentamicin 1 μM) [%]	Fraction of 5′-PS-G1491+genta complex [1, 4]	Fraction of 16S+genta complex ([2]; Example 1: gentamicin 2 μM (three forms), 16S RNA 2.5 μM with 5IUtetra RNA 2.5 μM, 100 mM ammonium acetate pH 7.0, 33% isopropyl alcohol) [%]	Fraction of 16S+genta complex ([2]; Example 2: gentamicin 2 μM, 16S RNA 2.5 μM with 5IU1406 RNA 2.5 μM, 100 mM ammonium acetate pH 7.0, 33% isopropyl alcohol) [%]	Fraction of 16S+genta complex [2, 4] [%]	Fraction of 16S+genta complex ([2]; Example 6: gentamicin 1 μM (lowest mass form integrated), 16S RNA 5 μM with 5′-PS-A1492 RNA 5.5 μM, 100 mM ammonium acetate pH 7.0, 33% isopropyl alcohol) [%]
NC[C@H]1O[C@H](O[C@H]2[C@H](O[C@@H]3O[C@H](CO)[C@@H](O)[C@H]3O)[C@@H](O)[C@H](N)C[C@@H]2N)[C@H](N)[C@@H](O)[C@@H]1O [ribostamycin]	94	0.100±0.005	67.6	0.105	0.101						
gentamicin						110	0.140±0.01 fraction (unitless)	70.4	66.8	0.127	0.121

Source: patent US6787315B2, “Methods for identifying ligand binding sites in a biomolecule” (priority 2001, dated 2004)
